Consider 85 molecules from ChEMBL document CHEMBL1157539, “Thousands of chemical starting points for antimalarial lead identification” (Nature, 2010).

The structures appear in SMILES notation.

The test system of this test is Plasmodium falciparum. In words: GSK_TCMDC: Inhibition of Plasmodium falciparum 3D7 in whole erythrocytes, using parasite LDH activity as an index of growth. Format: functional, organism-based. The note with it: Plasmodium falciparum, 3D7.
`CN1CC=C(c2c[nH]c3ccc(-c4ccccc4)cc23)CC1` gave an XC50 of 0.775 µM.
Take `C/C=C/COc1ccc(-c2c(C)[nH]c(C)c(Cl)c2=O)cc1`: the XC50 is 0.197 µM.
The value for `O=S(=O)(NCCN1CCCC1)c1ccc(-c2ccc(CNC3Cc4ccccc4C3)cc2)s1` was 0.59 µM.
The figure for `Cc1nn(C)c(C)c1CN(Cc1nc(-c2cccc(Oc3ccccc3)c2)oc1C)C1CC1` is 0.392 µM; for `Cc1cc(N[C@@H](Cc2ccccc2)C(=O)NCc2cccc(F)c2)nc(NCCc2ccccc2)n1` it is 1.02 µM; for `Cc1cc(CN2CC[C@H](NC(=O)c3ccc(Cl)c(Cl)c3)C2)ccc1OCCN1CCNCC1` it is 0.944 µM.
As for `CN1CCN(CC(=O)Nc2ccc(-c3ccc(-c4nc5ccccc5[nH]4)cc3)cc2)CC1`, the XC50 worked out at 0.696 µM.
The figure for `c1ccc(C2CCC(N3CCC(N4CCCC4)CC3)CC2)cc1` (stereo not given) is 0.671 µM.
Turning to `CCCC(C)N(Cc1ccc(C(C)(C)C)cc1)C(=O)c1cccc(OC)c1` (stereo not given), the XC50 stood at 0.336 µM.
`[O-][s+]1nc(NCCCN(Cc2cccs2)c2ccccn2)c(NCc2ccccc2)n1` (stereo not given): the XC50 is 0.305 µM.
`Cc1nc(Nc2ccncc2)cc(-c2ccncc2)n1` showed an XC50 of 0.725 µM.
The figure for `CC(C)C(=O)NC(c1ccc(N(C)C)cc1)c1cc(Cl)c2cccnc2c1O` (stereo not given) is 0.859 µM; for `COc1ccc(NC(=O)[C@H](Cc2ccccc2)Nc2cc(C)nc(NCCc3cccs3)n2)cc1` it is 0.749 µM; for `CN1CCC(N2CCN(Cc3cccc(-c4ccc(-c5nc6cc(F)ccc6[nH]5)cc4)c3)CC2)CC1` it is 0.107 µM.
The molecule `O=C(Nc1ccc(OC2CCN(Cc3ccccc3)C2)c(Cl)c1)c1ccco1` (stereo not given) returned an XC50 of 0.406 µM.
The figure for `O=C(Nc1ccccc1F)NC1CCN(c2ccnc(Nc3ccc(F)cc3)n2)C1` (stereo not given) is 0.854 µM; for `N=C(N)NN=CC(=O)Nc1ccc(Cl)c(C(F)(F)F)c1` it is 0.892 µM.
The value for `Cc1cccc2nc(-c3ccc(-c4ccc(NC(=O)Nc5ccc(F)c(F)c5F)cc4)cc3)[nH]c12` was 0.273 µM; that for `COc1ccc(CNCc2ccc(-c3ccc(CNCCc4ccccc4)cn3)cc2)cn1` was 1.01 µM.
The value for `CN1CCCC(CN2CCN(Cc3cccc(-c4cccc(-c5nc6ccccc6[nH]5)c4)c3)CC2)C1` (stereo not given) was 0.139 µM; that for `Cc1c(CNCCCNc2cc(=O)c3ccccc3[nH]2)sc(/C=N/O)c1Br` was 1.08 µM.
Consider `COc1cc(Nc2nc(N)c3cc(OC)c(OC)cc3n2)cc(OC)c1`, for which the XC50 was 0.272 µM.
As to `CCc1c[nH]c2c(N3CCCC3=O)cc(C(=O)N[C@@H](Cc3ccccc3)[C@H](O)CNC(C)(C)c3cccc(OC)c3)cc12`, the XC50 is 0.192 µM.
The figure for `COc1cc(CNC[C@@H](O)[C@H](Cc2ccccc2)NC(=O)c2cc(OC(C)C)cc(N3CCCS3(=O)=O)c2)cc(OC)c1` is 0.798 µM.
The figure for `CS(=O)(=O)CCNCc1cccc(-c2cc3c(Nc4ccc(OCc5ccccc5)cc4)ncnc3cn2)c1` is 0.734 µM.
The molecule `CCNc1cc(C(=O)N[C@@H](Cc2ccccc2Cl)[C@H](O)CNC(C)CCCC(C)C)cc(N2CCCCS2(=O)=O)c1` (stereo not given in full) had an XC50 of 0.928 µM.
`COc1cc(C2CCCCC2)c(OC)cc1CC1c2cc(O)c(Cl)cc2CCN1C` (stereo not given) returned an XC50 of 0.449 µM.
For `Nc1ccnc(N2CCC(CCOc3ccnc4cc(Cl)ccc34)CC2)c1`, the XC50 worked out at 1.16 µM.
The value for `COc1ccccc1CCNc1nc(C)cc(N[C@@H](Cc2ccccc2)C(=O)NCCOc2ccccc2)n1` was 1.21 µM.
The figure for `Oc1ccc(Br)cc1C(O)CNCc1ccccc1OCc1ccccc1` (stereo not given) is 0.167 µM.
The value for `O=C(/C=C/c1cccc(Cl)c1)NCCCCCN1CCC(c2c[nH]c3ccccc23)CC1` was 0.988 µM; that for `CC[C@H]1CN2CC[C@H]1C[C@H]2[C@H](O)c1cc(N2CCCC2)nc2ccc(OC)cc12` was 0.0448 µM.
For `COc1ccc(C(=O)O)cc1OCc1ccccc1`, the XC50 was found to be 0.819 µM.
`CC1(C)NC(N)=NC(=N)N1OCCCc1c(Cl)cccc1Cl`: the XC50 came out at 0.0032 µM.
The figure for `Cc1cccc(CNc2nc(C)cc(N[C@@H](Cc3ccccc3)C(=O)NCc3cccc(F)c3)n2)c1` is 1.04 µM; for `c1ccc(Oc2ccc(Nc3ccnc4ccc(-c5ccccn5)cc34)cc2)cc1` it is 1.1 µM; for `CCC(C)NC(=O)Nc1ccc(-c2cccc(-c3nc4cc(C(F)(F)F)ccc4[nH]3)c2)cc1` (stereo not given) it is 0.624 µM.
The figure for `Cc1ccccc1NC(=O)NC1CCN(CCCCCNC(=O)/C=C/c2ccc(Cl)c(Cl)c2)CC1` is 0.769 µM; for `CO/C(=C\C=C\c1cc2cc(Cl)c(Cl)cc2[nH]1)C(=O)NCCCN1CCCC[C@H]1C` it is 0.791 µM.
In turn, `COc1cccc(Nc2c(C(N)=O)cnc3ccc(-c4ccccc4)cc23)c1` returned an XC50 of 0.771 µM.
`O=C(NCc1ccc(F)cc1)c1cnc(N2CCN(c3ccncc3)CC2)c(Cl)c1` yielded an XC50 of 1.39 µM.
The value for `O=C(Nc1nc2cc(S(=O)(=O)NCCCN3CCOCC3)ccc2n1CCCn1ccnc1)c1ccc(Cl)cc1` was 0.925 µM; that for `O=C(Nc1ccc(Cn2nc(Cl)c(N3CCNCC3)cc2=O)cc1)Nc1ccc(-c2ccccc2)cc1` was 0.753 µM.
The value for `COc1cc(NCC(C)CNCc2cn(Cc3ccccc3)c3ccccc23)nc2ccccc12` (stereo not given) was 0.633 µM.
The value for `COc1c(C2CCN(CCCCNC(=O)c3ccc(-c4ccc(C#N)cc4)cc3)CC2)ccc2c1C(C)(C)CCC2(C)C` was 0.411 µM; that for `Clc1cc(Cl)c2c(c1)C(NCCCNc1nc3ccccc3[nH]1)CCO2` (stereo not given) was 0.325 µM.
Consider `O=C(NCCc1ccccc1)N(Cc1ccccc1-c1cccc(CNC2CCCC2)c1)C1CCN(Cc2ccccc2)CC1`, for which the XC50 stood at 0.832 µM.
Molecule `COc1ccc2ncc(F)c(CCN3CC(O)C(CNCc4ccccc4)C3)c2n1` (stereo not given) had an XC50 of 0.91 µM.
In turn, `CS(=O)(=O)c1ccc(CCNCc2ccc(-c3ccc(CN(C(=O)c4ccc(Cl)nc4)C4CCN(Cc5ccccc5)CC4)cc3)nc2)cc1` displayed an XC50 of 0.801 µM.
For `COc1ccc2nccc([C@@H](O)CN3CCC(NC(=O)c4ccc(Cl)c(Cl)c4)CC3)c2c1`, the XC50 was 0.614 µM.
In the case of `CC(C)(C)c1ccc(NC(=O)c2cccc(CN3CCCN(Cc4cccc(Cl)c4)CC3)c2)cc1`, the XC50 worked out at 0.997 µM.
The figure for `CC(C)c1ccc(S(=O)(=O)N(c2ccc3c(c2)OCO3)C2CCN(Cc3ccccc3)C2)cc1` (stereo not given) is 0.35 µM; for `Cc1cccc2nc(-c3cccc(-c4ccc(NC(=O)NC(C)C)cc4)c3)[nH]c12` it is 0.754 µM.
Turning to `CN(C)CCNCc1cccc(-c2ccc3c(Nc4ccc(Oc5ccccn5)cc4)ccnc3c2)c1`, the XC50 stood at 0.233 µM.
The figure for `O=C(C=Cc1ccc(Cl)c(Cl)c1)NCCCCCN1CCC(CCCNC(=O)/C=C/c2ccccc2)CC1` is 0.592 µM; for `CC1(C)N=C(N)N=C(N)C1c1ccc(Cl)c(Cl)c1` (stereo not given) it is 0.0259 µM.
The value for `CS(=O)(=O)N(c1ccccc1)c1cc(C(=O)N[C@@H](Cc2ccccc2)[C@H](O)CNC2CC2)cc(N2CCCC2=O)c1` was 0.305 µM; that for `COc1ccc2ncc(F)c(CCN3CCC(NCc4cnc5c(c4)NC(=O)CS5)CC3)c2c1` was 0.575 µM; that for `O=C(NCCN1CCCCC1)c1ccc(CNC(=O)c2ccc(O)c(-c3ccc(Cl)c(Cl)c3)c2)cc1` was 0.9 µM.
The figure for `N#Cc1ccc(CN2CCC(NC(=O)c3ccc(-c4nnc(-c5cccc6ccccc56)o4)cc3)CC2)cc1` is 0.684 µM; for `COc1ccc(Nc2nccc(-c3c(-c4cccc(NC(=O)c5c(F)cccc5F)c4)nn4ccccc34)n2)cc1Cl` it is 0.284 µM.
For the molecule `Fc1ccc2[nH]c(-c3ccc(-c4ccc(CNCCc5ccncc5)cc4)s3)nc2c1`, the XC50 amounted to 0.142 µM.
`Oc1cccc(CNCCCN(Cc2ccccc2)c2ccccc2)c1` came in with an XC50 of 0.6 µM.
The value for `O=C(Nc1ccc(OC2CCN(Cc3ccccc3)CC2)c(Cl)c1)c1cccs1` was 0.312 µM; that for `COc1cc2nc(N3CCN(c4cc(C)ccc4C)CC3)nc(N)c2cc1OC` was 0.851 µM.
Turning to `CC(=O)N(C)/N=C/[C@H](CCc1ccccc1)NC(=O)[C@H](CC(C)C)NC(=O)c1cccc(OCCN2CCOCC2)c1`, the XC50 was determined as 0.332 µM.
The value for `Cc1cccc2nc(-c3ccc(-c4cccc(NC(=O)CCc5c[nH]cn5)c4)cc3)[nH]c12` was 0.41 µM; that for `CCn1ccc2c(N3CCCC3=O)cc(C(=O)N[C@@H](Cc3ccccc3)[C@H](O)CNC(C)(C)CCCC(C)C)cc21` was 0.347 µM.
The figure for `CCc1ccc(CNCC(CCNc2cc(=O)c3ccccc3[nH]2)NCc2cc(Br)cc(Br)c2)o1` (stereo not given) is 0.638 µM; for `C[C@H](Cc1ccc(OCCCCCCOc2ccc(C[C@@H](C)N[C@H](C)c3ccccc3)cc2)cc1)NC[C@H](O)c1cccc(Cl)c1` it is 0.241 µM; for `COc1ccc(NC(=S)NC(NC(=O)CF)C(Cl)(Cl)Cl)cc1[N+](=O)[O-]` (stereo not given) it is 0.479 µM.
The value for `CC(C)Sc1nc(-c2ccccc2)nc2c1COC(C)(C)C2` was 0.857 µM.
Molecule `Cc1cc(O)nc(NC#N)n1` yielded an XC50 of 0.166 µM.
Consider `COc1ccc(-c2ccc(NC(=O)c3cccc(Cl)c3)cc2)cc1CN1CCCC1`, for which the XC50 is 0.705 µM.
The figure for `CN(C)c1ccc(C=C2SC(=O)N=C2Nc2ccccc2)cc1` is 0.0321 µM.
As to `CCCN(CCC)CCCN(CCCN(CCC)CCC)c1cc(C)nc(Nc2ccc(Cl)cc2)n1`, the XC50 was 0.168 µM.
The value for `COc1ccc(CN(C)Cc2ccc(NC(=O)c3cccc4c(=O)c5cccc(C)c5[nH]c34)cc2)cc1OC` was 0.844 µM.
With `COc1cc(F)c2ncc(F)c(CCN3C[C@H](CNCc4ccc5c(n4)NC(=O)CS5)[C@H](O)C3)c2c1`, the XC50 is 0.462 µM.
`O=C(Nc1ccc(-c2csc(-c3nc4ccccc4[nH]3)c2)cc1)Nc1ccsc1` registered an XC50 of 0.552 µM.
The figure for `CC(=O)Nc1ccc(CN2CCC(N(C)c3cc(NC(=O)c4ccc(F)cc4)ccn3)CC2)cc1` is 1.12 µM; for `O=C(CN1CCCCC1)Nc1ccc(Nc2nccc(NCC(O)c3ccccc3)n2)cc1` (stereo not given) it is 0.583 µM; for `C=CCOC(=O)N1CCC(CNCc2cccc(-c3cccc(-c4nc5cccc(C)c5[nH]4)c3)c2)C1` (stereo not given) it is 0.109 µM.
Turning to `CC[C@H](C)CNC(=O)c1cncc(-c2ccc(CNCC3CNCCCO3)cc2)c1` (stereo not given in full), the XC50 worked out at 1.02 µM.
`CCCCCOc1ccc(C(O)C(CCC(CN2CCCCCC2)C(O)c2ccc(OCCCCC)cc2)CN2CCCCCC2)cc1` (stereo not given) registered an XC50 of 0.768 µM.
Consider `Nc1nc(N)c2c(CCc3ccc4ccccc4c3)cccc2n1`, for which the XC50 was determined as 0.693 µM.
